From ChEMBL document CHEMBL6103672, “Discovery of HMPL-306 (Ranosidenib), a New Potent and Selective Dual Inhibitor of Mutant IDH1 and 2 in Clinical Development for Cancer Treatment” (ACS Med Chem Lett, 2025)

Key:
[1] = target: Isocitrate dehydrogenase [NADP], mitochondrial (Homo sapiens, UniProt P48735, R140Q); assay: Inhibition of IDH2 R140Q mutant (unknown origin) using alpha-ketoglutarate as substrate preincubated with compound for 16 hrs followed by substrate addition and measured after 1 hr in presence of NADPH by fluorescence based analysis
[2] = Inhibition of IDH2 R140Q mutant in human U-87 MG cells incubated for 72 hrs by measuring 2-HG production by fluorescence based analysis; type: functional, cell-based, U-87MG ATCC
[3] = Apparent permeability across apical to basolateral side in human Caco-2 cells at 10 uM incubated for 1 hrs by LC-MS/MS analysis
[4] = Apparent permeability across basolateral to apical side in human Caco-2 cells at 10 uM incubated for 1 hrs by LC-MS/MS analysis
[5] = Metabolic stability in male ICR mouse liver microsomes assessed as parent compound remaining at 1 uM measured after 30 mins in presence of NADPH by LC-MS analysis; type: ADME, Microsome; settings: read-out: Stability
[6] = Inhibition of IDH1 R132H mutant in human U-87 MG cells incubated for 72 hrs by measuring 2-HG production by fluorescence based analysis; type: functional, cell-based, U-87MG ATCC
[7] = Metabolic stability in male SD rat liver microsomes assessed as parent compound remaining at 1 uM measured after 30 mins in presence of NADPH by LC-MS analysis; type: ADME, Microsome; settings: Sprague-Dawley, read-out: Stability

Sequence of Isocitrate dehydrogenase [NADP], mitochondrial (P48735 40-452 R140Q limits assumed): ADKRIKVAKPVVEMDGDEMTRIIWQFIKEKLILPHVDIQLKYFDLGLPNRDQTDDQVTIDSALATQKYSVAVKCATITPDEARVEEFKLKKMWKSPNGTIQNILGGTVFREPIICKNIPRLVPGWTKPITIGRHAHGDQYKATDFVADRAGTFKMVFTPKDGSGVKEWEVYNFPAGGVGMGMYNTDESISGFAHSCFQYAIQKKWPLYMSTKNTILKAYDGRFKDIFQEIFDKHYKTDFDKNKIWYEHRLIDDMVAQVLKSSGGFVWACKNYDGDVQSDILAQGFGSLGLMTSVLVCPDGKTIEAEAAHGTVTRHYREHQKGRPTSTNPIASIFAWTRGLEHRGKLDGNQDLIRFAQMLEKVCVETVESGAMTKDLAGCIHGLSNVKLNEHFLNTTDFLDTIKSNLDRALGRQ

IC50 [1]	IC50 ([2]; Homo sapiens, U-87 MG, 72 h)	Structure (SMILES)	also measured
1030 nM	2390 nM	COC1C=C(c2nc(N[C@H](C)C(F)(F)F)nc(N[C@H](C)C(F)(F)F)n2)CCC1 (stereo partly specified)	
16 nM	67 nM	CC(C)Nc1nc(N[C@H](C)C(F)(F)F)nc(C2=C[C@@H](O)CCC2)n1	Papp A→B at 1 h, 10 µM [3]: 55.4 ×10⁻⁶ cm/s; Papp B→A at 1 h, 10 µM [4]: 34.1 ×10⁻⁶ cm/s; remaining at 0.5 h, 1 µM [5]: 48.1%; IC50 ([6]; Homo sapiens, U-87 MG, 72 h): 372 nM; remaining at 0.5 h, 1 µM [7]: 65%
710 nM	> 10000 nM	C=C(C)c1nc(NC(C)C)nc(N[C@H](C)C(F)(F)F)n1	
> 3000 nM		CNC1C=C(c2nc(N[C@H](C)C(F)(F)F)nc(N[C@H](C)C(F)(F)F)n2)CCC1 (stereo partly specified)	
83 nM	1420 nM	CC(C)Nc1nc(N[C@H](C)C(F)(F)F)nc(C2=CCCC2)n1	
21 nM	413 nM	CC(C)Nc1nc(N[C@H](C)C(F)(F)F)nc(C2=CCCCC2)n1	Papp A→B at 1 h, 10 µM [3]: 0.9 ×10⁻⁶ cm/s; Papp B→A at 1 h, 10 µM [4]: 3.3 ×10⁻⁶ cm/s; remaining at 0.5 h, 1 µM [5]: 12.5%; remaining at 0.5 h, 1 µM [7]: 13.6%
23 nM	504 nM	CC(C)Nc1nc(N[C@H](C)C(F)(F)F)nc(C2=CC(F)(F)CCC2)n1	Papp A→B at 1 h, 10 µM [3]: 2.2 ×10⁻⁶ cm/s; Papp B→A at 1 h, 10 µM [4]: 4 ×10⁻⁶ cm/s
794 nM	999 nM	CC(C)Nc1nc(N[C@H](C)C(F)(F)F)nc(C2=C[C@H](O)CCC2)n1	
253 nM		CC(C)Nc1nc(N[C@H](C)C(F)(F)F)nc(C2(c3ccccc3)CC2)n1	
2340 nM		CC(C)Nc1nc(N[C@H](C)C(F)(F)F)nc(C2=CCOCC2)n1	
> 3000 nM		CC(C)Nc1nc(N[C@H](C)C(F)(F)F)nc(N2CCCCC2)n1	
166 nM	156 nM	C[C@H](Nc1nc(N[C@H](C)C(F)(F)F)nc(C2=C(F)C(O)C(F)(F)CC2)n1)C(F)(F)F (stereo partly specified)	IC50 ([6]; Homo sapiens, U-87 MG, 72 h): 1030 nM
	1020 nM	C[C@@H](Nc1nc(N[C@H](C)C(F)(F)F)nc(C2=C(F)[C@H](O)CCC2)n1)C(F)(F)F	Papp A→B at 1 h, 10 µM [3]: 60 ×10⁻⁶ cm/s; Papp B→A at 1 h, 10 µM [4]: 26 ×10⁻⁶ cm/s; IC50 ([6]; Homo sapiens, U-87 MG, 72 h): 3260 nM
1200 nM	2800 nM	C[C@@H](Nc1nc(NCC(C)(C)O)nc(C2=CC(O)CCC2)n1)C(F)(F)F (mixture of isomers)	
120 nM		CC(C)Nc1nc(N[C@H](C)C(F)(F)F)nc(C2=CCCC(F)C2)n1 (mixture of isomers)	
43 nM	296 nM	C[C@@H](Nc1nc(NC2CCCCC2)nc(C2=CC(O)CCC2)n1)C(F)(F)F (mixture of isomers)	
222 nM	707 nM	C[C@@H](Nc1nc(N[C@H](C)C(F)(F)F)nc(C2=C(F)C(O)C3(CC2)CC3)n1)C(F)(F)F (mixture of isomers)	IC50 ([6]; Homo sapiens, U-87 MG, 72 h): 3230 nM
28 nM		C[C@@H](Nc1nc(N[C@H](C)C(F)(F)F)nc(C2=C(F)C(O)C(F)(F)CC2)n1)C(F)(F)F (mixture of isomers)	Papp A→B at 1 h, 10 µM [3]: 50.4 ×10⁻⁶ cm/s; Papp B→A at 1 h, 10 µM [4]: 25.1 ×10⁻⁶ cm/s; remaining at 0.5 h, 1 µM [5]: 95.2%; IC50 ([2]; u-87mg atcc): 94 nM; IC50 ([6]; u-87mg atcc): 210 nM; remaining at 0.5 h, 1 µM [7]: 102%
1780 nM		CC(C)Nc1nc(N[C@H](C)C(F)(F)F)nc(C2=CCCC(O)C2)n1 (mixture of isomers)	

IC50 [1]	IC50 ([2]; Homo sapiens, U-87 MG, 72 h)	Structure (SMILES)	also measured
257 nM	171 nM	C[C@@H](Nc1nc(NC2CC2)nc(C2=CC(O)CCC2)n1)C(F)(F)F (mixture of isomers)	
111 nM	319 nM	C[C@@H](Nc1nc(NC(C)(C)C)nc(C2=CC(O)CCC2)n1)C(F)(F)F (mixture of isomers)	
41 nM	137 nM	CC(C)Nc1nc(N[C@H](C)C(F)(F)F)nc(C2=CC(O)CCC2)n1 (mixture of isomers)	Papp A→B at 1 h, 10 µM [3]: 53.3 ×10⁻⁶ cm/s; Papp B→A at 1 h, 10 µM [4]: 34.6 ×10⁻⁶ cm/s; remaining at 0.5 h, 1 µM [5]: 44.1%; IC50 ([6]; Homo sapiens, U-87 MG, 72 h): 658 nM; remaining at 0.5 h, 1 µM [7]: 74.1%
35 nM	86 nM	C[C@@H](Nc1nc(N[C@H](C)C(F)(F)F)nc(C2=CC(O)CCC2)n1)C(F)(F)F (mixture of isomers)	Papp A→B at 1 h, 10 µM [3]: 44.9 ×10⁻⁶ cm/s; Papp B→A at 1 h, 10 µM [4]: 28.6 ×10⁻⁶ cm/s; remaining at 0.5 h, 1 µM [5]: 58.2%; IC50 ([6]; Homo sapiens, U-87 MG, 72 h): 434 nM; remaining at 0.5 h, 1 µM [7]: 79.8%
85 nM	1670 nM	CC(C)Nc1nc(N[C@H](C)C(F)(F)F)nc(C2=CC(O)CC2)n1 (mixture of isomers)	
54 nM	137 nM	C[C@@H](Nc1nc(N[C@H](C)C(F)(F)F)nc(C2=C(F)C(O)CCC2)n1)C(F)(F)F (mixture of isomers)	Papp A→B at 1 h, 10 µM [3]: 68.6 ×10⁻⁶ cm/s; Papp B→A at 1 h, 10 µM [4]: 15.5 ×10⁻⁶ cm/s; remaining at 0.5 h, 1 µM [5]: 83.8%; IC50 ([6]; Homo sapiens, U-87 MG, 72 h): 365 nM; remaining at 0.5 h, 1 µM [7]: 99%
43 nM	181 nM	CC(C)Nc1nc(N[C@H](C)C(F)(F)F)nc(C2=CC(F)CCC2)n1 (mixture of isomers)	Papp A→B at 1 h, 10 µM [3]: 5.1 ×10⁻⁶ cm/s; Papp B→A at 1 h, 10 µM [4]: 5.2 ×10⁻⁶ cm/s; remaining at 0.5 h, 1 µM [5]: 16.8%; remaining at 0.5 h, 1 µM [7]: 25.1%
162 nM		CC(C)Nc1nc(N[C@H](C)C(F)(F)F)nc(C2=CCC(F)CC2)n1 (mixture of isomers)	
337 nM		CC(C)Nc1nc(N[C@H](C)C(F)(F)F)nc(C(C)c2ccccc2)n1 (mixture of isomers)	
> 3000 nM		CC(C)Nc1nc(N[C@H](C)C(F)(F)F)nc(C2=CCC(O)CC2)n1 (mixture of isomers)	
262 nM	1540 nM	CC(C)C(=O)Nc1nc(N[C@H](C)C(F)(F)F)nc(C2=CC(O)CCC2)n1 (mixture of isomers)	
21 nM	100 nM	CC(C)CNc1nc(N[C@H](C)C(F)(F)F)nc(C2=CC(O)CCC2)n1 (mixture of isomers)	IC50 ([6]; Homo sapiens, U-87 MG, 72 h): 2470 nM
35 nM	174 nM	CCCNc1nc(N[C@H](C)C(F)(F)F)nc(C2=CC(O)CCC2)n1 (mixture of isomers)	
309 nM	174 nM	C[C@H](Nc1nc(N[C@@H](C)C(F)(F)F)nc(C2=C(F)C(O)C(F)(F)CC2)n1)C(F)(F)F (mixture of isomers)	IC50 ([6]; Homo sapiens, U-87 MG, 72 h): 1320 nM
33 nM	67 nM	C[C@@H](Nc1nc(NC2CCCC2)nc(C2=CC(O)CCC2)n1)C(F)(F)F (mixture of isomers)	Papp A→B at 1 h, 10 µM [3]: 30.9 ×10⁻⁶ cm/s; Papp B→A at 1 h, 10 µM [4]: 13.6 ×10⁻⁶ cm/s; IC50 ([6]; Homo sapiens, U-87 MG, 72 h): 733 nM
39 nM	92 nM	C[C@@H](Nc1nc(NC2CCC2)nc(C2=CC(O)CCC2)n1)C(F)(F)F (mixture of isomers)	Papp A→B at 1 h, 10 µM [3]: 41.4 ×10⁻⁶ cm/s; Papp B→A at 1 h, 10 µM [4]: 27.5 ×10⁻⁶ cm/s; remaining at 0.5 h, 1 µM [5]: 15.9%; remaining at 0.5 h, 1 µM [7]: 34%
68 nM	336 nM	CCNc1nc(N[C@H](C)C(F)(F)F)nc(C2=CC(O)CCC2)n1 (mixture of isomers)	
> 3000 nM		COCCNc1nc(N[C@H](C)C(F)(F)F)nc(C2=CC(O)CCC2)n1 (mixture of isomers)	
145 nM		C[C@@H](Nc1nc(N[C@H](C)C(F)(F)F)nc(C2=C(F)C(O)C(F)(F)CC2)n1)C(F)(F)F (stereo in doubt; 42)	IC50 ([2]; u-87mg atcc): 845 nM; IC50 ([6]; u-87mg atcc): 1890 nM

Structure (SMILES)	IC50 [1]	IC50 ([2]; Homo sapiens, U-87 MG, 72 h)	also measured
CC(C)Nc1nc(N[C@H](C)C(F)(F)F)nc(C2=CCN(C)CC2)n1	> 3000 nM		
